ChEMBL document CHEMBL1201862, “PubChem BioAssay data set” (2004)
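These data come from cells grown in 96-well plates and exposed to compound for 48 hours at five concentrations. Here, GI50 denotes the concentration required for 50% inhibition of growth.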 Calls of active or inactive are those of the source. No stated cut-off is given here; in the data, active = GI50 up to about 1.1 µM and inactive = higher.

Tests used:
Experiment in all cases: growth of human tumour cells (NCI), 48 h
SF-295 = tested on: SF-295
KM12 = tested on: KM12
ACHN = tested on: ACHN
OVCAR-3 = tested on: OVCAR-3
CAKI-1 = tested on: CAKI-1
MDA-MB-435 = tested on: MDA-MB-435
OVCAR-5 = tested on: OVCAR-5
RXF 393 = tested on: RXF 393
SK-MEL-28 = tested on: SK-MEL-28
MOLT-4 = tested on: MOLT-4
SF-539 = tested on: SF-539
NCI-H226 = tested on: NCI-H226
786-0 = tested on: 786-0
IGROV-1 = tested on: IGROV-1
NCI/ADR-RES = tested on: NCI/ADR-RES
MDA-MB-231 = tested on: MDA-MB-231
HCT-116 = tested on: HCT-116
K562 = tested on: K562
NCI-H23 = tested on: NCI-H23
OVCAR-4 = tested on: OVCAR-4
LOX IMVI = tested on: LOX IMVI
Malme-3M = tested on: Malme-3M
A549 = tested on: A549
SN12C = tested on: SN12C
MCF7 = tested on: MCF7
SNB-75 = tested on: SNB-75
UO-31 = tested on: UO-31
PC-3 = tested on: PC-3
M14 = tested on: M14
SK-MEL-5 = tested on: SK-MEL-5
SNB-19 = tested on: SNB-19
UACC-62 = tested on: UACC-62
OVCAR-8 = tested on: OVCAR-8
DU-145 = tested on: DU-145
T47D = tested on: T47D
HOP-62 = tested on: HOP-62
SK-OV-3 = tested on: SK-OV-3
SF-268 = tested on: SF-268
SW-620 = tested on: SW-620
Hs-578T = tested on: Hs-578T
MDA-N = tested on: MDA-N
SR = tested on: SR
SK-MEL-2 = tested on: SK-MEL-2
HOP-92 = tested on: HOP-92
HCT-15 = tested on: HCT-15
NCI-H460 = tested on: NCI-H460
HL-60 = tested on: HL-60
UACC-257 = tested on: UACC-257
NCI-H522 = tested on: NCI-H522
EKVX = tested on: EKVX
HCC 2998 = tested on: HCC 2998
U-251 = tested on: U-251
COLO 205 = tested on: COLO 205
HT-29 = tested on: HT-29
RPMI-8226 = tested on: RPMI-8226
TK-10 = tested on: TK-10
A498 = tested on: A498
CCRF-CEM = tested on: CCRF-CEM

Measured: GI50

COc1c(-c2cc(C)c(Cl)c(=O)[nH]2)c(O)c(OC)c2occc12
inactive: SF-295 > 100 µM | KM12 > 100 µM | ACHN > 100 µM | OVCAR-3 > 100 µM | CAKI-1 > 100 µM | MDA-MB-435 > 100 µM | OVCAR-5 > 100 µM | RXF 393 52.2 µM | SK-MEL-28 > 100 µM | MOLT-4 > 100 µM | SF-539 > 100 µM | NCI-H226 > 100 µM | 786-0 > 100 µM | IGROV-1 > 100 µM | NCI/ADR-RES > 100 µM | MDA-MB-231 75.9 µM | HCT-116 > 100 µM | K562 > 100 µM | NCI-H23 > 100 µM | OVCAR-4 > 100 µM | LOX IMVI > 100 µM | Malme-3M > 100 µM | A549 > 100 µM | SN12C > 100 µM | MCF7 > 100 µM | SNB-75 26.7 µM | UO-31 38.5 µM | PC-3 > 100 µM | M14 > 100 µM | SK-MEL-5 78.3 µM | SNB-19 96.4 µM | UACC-62 64 µM | OVCAR-8 > 100 µM | DU-145 > 100 µM | T47D > 100 µM | HOP-62 > 100 µM | SK-OV-3 > 100 µM | SF-268 97.1 µM | SW-620 > 100 µM | Hs-578T > 10 µM | MDA-N > 100 µM | SR 81.8 µM | SK-MEL-2 > 100 µM | HOP-92 23.1 µM | NCI-H460 > 100 µM | HL-60 > 100 µM | UACC-257 > 100 µM | NCI-H522 > 100 µM | EKVX > 100 µM | HCC 2998 > 100 µM | U-251 > 100 µM | COLO 205 > 100 µM | HT-29 > 100 µM | RPMI-8226 > 100 µM | TK-10 42.9 µM
> 100 µM: HCT-15

CCn1nc(-c2ccccc2)c2c1N(C)c1ccccc1-n1c(-c3ccccc3)nnc1-2
10.4 µM: HCT-15
inactive: ACHN 13.5 µM | MDA-MB-435 > 100 µM | OVCAR-5 19.4 µM | SK-MEL-28 17.7 µM | MOLT-4 > 10 µM | SF-539 22.5 µM | NCI-H226 17.2 µM | 786-0 16.3 µM | IGROV-1 19.9 µM | NCI/ADR-RES 14.9 µM | MDA-MB-231 13.4 µM | HCT-116 13.1 µM | K562 17.1 µM | A498 1.46 µM | NCI-H23 14 µM | LOX IMVI 16.6 µM | CCRF-CEM 18.8 µM | A549 13.3 µM | SN12C 16.4 µM | MCF7 5.45 µM | SNB-75 3.69 µM | UO-31 14.2 µM | PC-3 13.2 µM | M14 16 µM | SK-MEL-5 9.25 µM | SNB-19 15.9 µM | UACC-62 12.8 µM | OVCAR-8 20.9 µM | DU-145 16.1 µM | T47D 4.63 µM | HOP-62 17.9 µM | SK-OV-3 18.9 µM | SF-268 16.1 µM | SW-620 16.1 µM | Hs-578T 19 µM | MDA-N 15.1 µM | SR 14.4 µM | SK-MEL-2 17.3 µM | HOP-92 16.3 µM | NCI-H460 14.3 µM | HL-60 > 10 µM | HCC 2998 15.9 µM | U-251 15 µM | COLO 205 19.7 µM | RPMI-8226 9.68 µM | TK-10 16 µM

CCOC(=O)c1csc(NC(=O)CCCC#N)n1
> 100 µM: HCT-15
inactive: SF-295 > 100 µM | KM12 > 100 µM | ACHN > 100 µM | OVCAR-3 > 100 µM | CAKI-1 > 100 µM | MDA-MB-435 > 100 µM | OVCAR-5 > 100 µM | RXF 393 > 100 µM | SK-MEL-28 > 100 µM | MOLT-4 > 100 µM | SF-539 > 100 µM | NCI-H226 > 100 µM | NCI/ADR-RES > 100 µM | MDA-MB-231 > 100 µM | K562 > 100 µM | A498 > 100 µM | NCI-H23 > 100 µM | OVCAR-4 > 100 µM | LOX IMVI > 100 µM | CCRF-CEM > 100 µM | A549 > 100 µM | MCF7 > 100 µM | SNB-75 > 100 µM | UO-31 > 100 µM | PC-3 > 100 µM | M14 > 100 µM | SK-MEL-5 > 100 µM | SNB-19 > 100 µM | UACC-62 > 100 µM | OVCAR-8 > 100 µM | DU-145 > 100 µM | T47D > 100 µM | HOP-62 > 100 µM | SK-OV-3 > 100 µM | SW-620 > 100 µM | Hs-578T > 100 µM | MDA-N > 100 µM | SR > 100 µM | SK-MEL-2 > 100 µM | HOP-92 > 100 µM | NCI-H460 > 100 µM | HL-60 > 100 µM | UACC-257 > 100 µM | HCC 2998 > 100 µM | U-251 > 100 µM | COLO 205 > 100 µM | HT-29 > 100 µM | RPMI-8226 > 100 µM | TK-10 > 100 µM
